This note sets out measurements from patent publication US12187742B2 (XRAD Therapeutics, Inc., priority 2018, dated 2025).

Where a name gives a salt, the structure may show the parent alone. Where only a bound is given, the exact number is not on record here.

Test [1] has as its target ATM (Homo sapiens (Human), UniProt Q13315). Put plainly: ATM in Cell Western Assay (pKAP1 in etoposide-treated MCF-7 cells). In kind it is cell-based. To be noted: MCF-7 cells, etoposide 100 μM, 1 hr, pKAP1 readout. The method, boiled down: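 Cells received compounds in a 10-dose, 3-fold series from a 1 μM final top concentration, then 100 μM etoposide, for 1 hr at 37° C. They were then fixed with paraformaldehyde and permeabilized with 0.1% Triton X-100. After immunostaining, plates were scanned on an infrared imager.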

Test [2] concerns the target DNA-PK (Homo sapiens (Human), UniProt P78527). Put plainly: DNA-PK Enzyme-Linked Immunosorbent Assay (phosphorylation of GST-p53 (1-101) peptide). Type of test: biochemical. The note with it: ELISA, ATP 20 μM. The method, boiled down: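 ELISA with plate-bound GST-p53 (1-101) phosphorylated by DNA-PK (0.1 μg/mL final) with 20 μM ATP for 1 h at 25 °C. Compounds tested over 10 3-fold doses from 100 nM top final. Phospho-p53 Ser15 detected by antibody, HRP and TMB, absorbance at 450 nm.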

Sequence of ATM (Q13315 whole entry): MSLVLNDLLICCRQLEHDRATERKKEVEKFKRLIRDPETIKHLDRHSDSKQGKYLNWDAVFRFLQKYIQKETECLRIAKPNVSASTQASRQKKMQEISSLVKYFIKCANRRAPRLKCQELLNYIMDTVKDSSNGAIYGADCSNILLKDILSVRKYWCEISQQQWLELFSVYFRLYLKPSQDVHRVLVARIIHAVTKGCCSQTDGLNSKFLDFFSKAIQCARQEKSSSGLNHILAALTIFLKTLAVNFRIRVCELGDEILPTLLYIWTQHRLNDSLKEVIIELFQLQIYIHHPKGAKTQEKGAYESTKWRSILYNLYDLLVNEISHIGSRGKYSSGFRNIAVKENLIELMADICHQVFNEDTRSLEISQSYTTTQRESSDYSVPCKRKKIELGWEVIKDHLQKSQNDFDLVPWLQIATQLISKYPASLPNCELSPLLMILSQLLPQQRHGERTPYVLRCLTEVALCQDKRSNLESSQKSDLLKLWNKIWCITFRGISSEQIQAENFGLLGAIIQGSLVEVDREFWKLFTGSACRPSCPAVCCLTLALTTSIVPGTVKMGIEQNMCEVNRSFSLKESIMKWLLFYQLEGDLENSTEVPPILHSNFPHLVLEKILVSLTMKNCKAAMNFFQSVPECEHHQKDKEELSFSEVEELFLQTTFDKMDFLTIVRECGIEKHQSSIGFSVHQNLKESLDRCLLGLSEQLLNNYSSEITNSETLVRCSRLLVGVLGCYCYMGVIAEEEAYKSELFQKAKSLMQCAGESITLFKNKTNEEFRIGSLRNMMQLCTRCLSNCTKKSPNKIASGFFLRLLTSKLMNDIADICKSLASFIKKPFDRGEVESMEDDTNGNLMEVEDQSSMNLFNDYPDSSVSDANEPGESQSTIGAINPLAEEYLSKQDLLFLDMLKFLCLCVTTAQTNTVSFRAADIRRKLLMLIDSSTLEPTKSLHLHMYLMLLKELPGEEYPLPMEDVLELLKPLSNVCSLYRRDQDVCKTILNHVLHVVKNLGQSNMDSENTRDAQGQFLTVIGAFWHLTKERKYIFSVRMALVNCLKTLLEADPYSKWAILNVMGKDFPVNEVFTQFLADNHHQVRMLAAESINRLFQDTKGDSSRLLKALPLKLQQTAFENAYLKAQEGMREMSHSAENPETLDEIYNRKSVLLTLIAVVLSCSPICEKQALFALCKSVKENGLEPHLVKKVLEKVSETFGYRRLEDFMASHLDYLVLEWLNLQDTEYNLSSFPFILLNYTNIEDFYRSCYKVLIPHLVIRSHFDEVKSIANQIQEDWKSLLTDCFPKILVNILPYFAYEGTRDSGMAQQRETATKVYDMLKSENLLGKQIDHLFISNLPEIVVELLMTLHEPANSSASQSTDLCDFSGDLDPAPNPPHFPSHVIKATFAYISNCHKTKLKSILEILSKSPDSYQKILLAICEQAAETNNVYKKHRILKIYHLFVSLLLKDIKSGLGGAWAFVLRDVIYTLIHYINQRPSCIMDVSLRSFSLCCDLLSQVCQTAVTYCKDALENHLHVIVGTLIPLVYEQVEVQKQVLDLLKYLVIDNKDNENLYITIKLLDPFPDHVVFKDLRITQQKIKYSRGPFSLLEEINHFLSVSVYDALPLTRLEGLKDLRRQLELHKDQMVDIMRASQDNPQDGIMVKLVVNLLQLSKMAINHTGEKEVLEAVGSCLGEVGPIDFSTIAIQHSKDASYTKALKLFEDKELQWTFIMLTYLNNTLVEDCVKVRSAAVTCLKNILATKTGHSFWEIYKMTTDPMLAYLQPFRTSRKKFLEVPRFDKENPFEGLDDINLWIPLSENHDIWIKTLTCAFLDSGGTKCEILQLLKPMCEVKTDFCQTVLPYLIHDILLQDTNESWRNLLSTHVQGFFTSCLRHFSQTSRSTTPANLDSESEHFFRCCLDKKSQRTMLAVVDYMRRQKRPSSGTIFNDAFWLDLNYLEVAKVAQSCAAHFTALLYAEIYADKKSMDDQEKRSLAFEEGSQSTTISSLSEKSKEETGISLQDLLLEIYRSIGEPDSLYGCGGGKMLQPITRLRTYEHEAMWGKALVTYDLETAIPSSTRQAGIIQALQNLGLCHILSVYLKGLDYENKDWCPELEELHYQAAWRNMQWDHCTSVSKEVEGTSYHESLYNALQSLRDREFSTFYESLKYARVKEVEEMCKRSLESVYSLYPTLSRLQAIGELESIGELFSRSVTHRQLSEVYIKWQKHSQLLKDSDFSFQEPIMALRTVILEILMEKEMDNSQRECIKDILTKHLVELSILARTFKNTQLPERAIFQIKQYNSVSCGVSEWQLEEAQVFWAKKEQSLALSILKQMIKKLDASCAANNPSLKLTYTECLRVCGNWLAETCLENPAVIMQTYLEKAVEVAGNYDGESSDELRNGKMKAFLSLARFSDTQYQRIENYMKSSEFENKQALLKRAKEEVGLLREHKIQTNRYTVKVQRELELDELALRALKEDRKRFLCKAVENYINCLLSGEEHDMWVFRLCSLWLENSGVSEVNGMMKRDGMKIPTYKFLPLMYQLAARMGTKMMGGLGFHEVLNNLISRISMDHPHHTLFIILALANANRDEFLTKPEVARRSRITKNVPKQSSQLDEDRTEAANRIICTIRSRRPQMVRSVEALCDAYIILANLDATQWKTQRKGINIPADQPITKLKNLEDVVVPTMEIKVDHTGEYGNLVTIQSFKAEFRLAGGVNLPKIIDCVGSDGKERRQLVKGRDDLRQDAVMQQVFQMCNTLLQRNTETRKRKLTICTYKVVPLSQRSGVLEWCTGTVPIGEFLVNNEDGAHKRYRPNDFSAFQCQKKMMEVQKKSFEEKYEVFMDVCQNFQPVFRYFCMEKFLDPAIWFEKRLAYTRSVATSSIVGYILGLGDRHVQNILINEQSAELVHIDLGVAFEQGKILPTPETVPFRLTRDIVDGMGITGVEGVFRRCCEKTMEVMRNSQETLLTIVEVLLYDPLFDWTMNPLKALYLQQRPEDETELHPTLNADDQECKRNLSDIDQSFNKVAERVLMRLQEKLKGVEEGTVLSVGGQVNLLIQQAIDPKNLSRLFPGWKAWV

As for `CN1CCCC(COc2ncc(-c3ccc4ncc5c(c4c3)C3(CC3)C(=O)N5C)cc2NS(=O)(=O)c2ccccc2)C1` (stereo not drawn) [Example 84, N-(5-(3′-Methyl-2′-oxo-2′,3′-dihydrospiro[cyclopropane-1,1′-pyrrolo[2,3-c]quinolin]-8′-yl)-2-((1-methylpiperidin-3-yl)methoxy)pyridin-3-yl)benzenesulfonamide], the IC50 in test [1] and in test [2] was 1 to 100 nM each time.
On to `CN1CCCC(COc2ncc(-c3ccc4ncc5c(c4c3)C3(CC3)C(=O)N5C)cc2NS(=O)(=O)C2CC2)C1` (stereo not drawn) [Example 86, N-(5-(3′-Methyl-2′-oxo-2′,3′-dihydrospiro[cyclopropane-1,1′-pyrrolo[2,3-c]quinolin]-8′-yl)-2-((1-methylpiperidin-3-yl)methoxy)pyridin-3-yl)cyclopropanesulfonamide], for which the IC50 in test [1] and in test [2] was 1 to 100 nM in each case.
Regarding `CN(C)CCCOc1ncc(-c2ccc3ncc4c(c3c2)C2(CC2)C(=O)N4C)cc1NS(=O)(=O)c1ccc(F)cc1` [Example 88, N-(2-(3-(Dimethylamino)propoxy)-5-(3′-methyl-2′-oxo-2′,3′-dihydrospiro [cyclopropane-1,1′-pyrrolo[2,3-c]quinolin]-8′-yl)pyridin-3-yl)-4-fluorobenzenesulfonamide], the values for the IC50 in test [1] and in test [2] were 0.5 to 1 nM and below 0.5 nM, respectively.
Taken in the same sequence, the figures for `CN(C)CCCOc1ncc(-c2ccc3ncc4c(c3c2)C2(CC2)C(=O)N4C)cc1NS(=O)(=O)N1CCCC1` [Example 89, N-(2-(3-(Dimethylamino)propoxy)-5-(3′-methyl-2′-oxo-2′,3′-dihydrospiro [cyclopropane-1,1′-pyrrolo[2,3-c]quinolin]-8′-yl)pyridin-3-yl)pyrrolidine-1-sulfonamide hydrochloride] were 0.5 to 1 nM and below 0.5 nM.
Taken in the same sequence, the figures for `CN(C)CCCOc1ccc(-c2ccc3ncc4c(c3c2)C2(CC2)C(=O)N4C)cc1NS(=O)(=O)c1cccc(F)c1` [Example 90] were 0.5 to 1 nM and 1 to 100 nM.
Regarding `CN(C)CCCOc1ncc(-c2ccc3ncc4c(c3c2)C2(CC2)C(=O)N4C)cc1NS(=O)(=O)c1cnn(C)c1` [Example 91, N-(2-(3-(Dimethylamino)propoxy)-5-(3′-methyl-2′-oxo-2′,3′-dihydrospiro [cyclopropane-1,1′-pyrrolo[2,3-c]quinolin]-8′-yl)pyridin-3-yl)-1-methyl-1H-pyrazole-4-sulfonamide], the values for the IC50 in test [1] and in test [2] were 1 to 100 nM and below 0.5 nM, respectively.
For `CN(C)CCCOc1ncc(-c2ccc3ncc4c(c3c2)C2(CC2)C(=O)N4C)cc1NS(=O)(=O)c1ccsc1` [Example 92, N-(2-(3-(Dimethylamino)propoxy)-5-(3′-methyl-2′-oxo-2′,3′-dihydrospiro [cyclopropane-1,1′-pyrrolo[2,3-c]quinolin]-8′-yl)pyridin-3-yl)thiophene-3-sulfonamide] the same measures were 0.5 to 1 nM and below 0.5 nM.
For `COc1ccc(S(=O)(=O)Nc2cc(-c3ccc4ncc5c(c4c3)C3(CC3)C(=O)N5C)cnc2OCCCN(C)C)cc1` [Example 93, N-(2-(3-(Dimethylamino)propoxy)-5-(3′-methyl-2′-oxo-2′,3′-dihydrospiro [cyclopropane-1,1′-pyrrolo[2,3-c]quinolin]-8′-yl)pyridin-3-yl)-4-methoxybenzenesulfonamide] the same measures were 1 to 100 nM and below 0.5 nM.
For `CN(C)CCCOc1ncc(-c2ccc3ncc4c(c3c2)C2(CC2)C(=O)N4C)cc1NS(=O)(=O)c1cccc(C#N)c1` [Example 96, 3-Cyano-N-(2-(3-(dimethylamino)propoxy)-5-(3′-methyl-2′-oxo-2′,3′-dihydrospiro[cyclopropane-1,1′-pyrrolo[2,3-c]quinolin]-8′-yl)pyridin-3-yl)benzenesulfonamide] the same measures were 0.5 to 1 nM and below 0.5 nM.
In the case of `CN(C)CCCOc1c(F)cc(-c2ccc3ncc4c(c3c2)C2(CC2)C(=O)N4C)cc1NS(=O)(=O)c1ccccc1` [Example 97, N-(2-(3-(Dimethylamino)propoxy)-3-fluoro-5-(3′-methyl-2′-oxo-2′,3′-dihydrospiro[cyclopropane-1,1′-pyrrolo[2,3-c]quinolin]-8′-yl)phenyl)benzenesulfonamide], the IC50 in test [1] and in test [2] was 1 to 100 nM throughout.
For the compound `CN(C)CCCOc1ccc(-c2ccc3ncc4c(c3c2)C2(CC2)C(=O)N4C)cc1NS(=O)(=O)c1cccc(Cl)c1` [Example 98, 3-Chloro-N-(2-(3-(dimethylamino)propoxy)-5-(3′-methyl-2′-oxo-2′,3′-dihydrospiro[cyclopropane-1,1′-pyrrolo[2,3-c]quinolin]-8′-yl)phenyl) benzenesulfonamide], the IC50 in test [1] and in test [2] was 1 to 100 nM each time.
With `Cc1ccc(S(=O)(=O)Nc2cc(-c3ccc4ncc5c(c4c3)C3(CC3)C(=O)N5C)cnc2OCCCN(C)C)cc1` [Example 100, N-(2-(3-(Dimethylamino)propoxy)-5-(3′-methyl-2′-oxo-2′,3′-dihydrospiro [cyclopropane-1,1′-pyrrolo[2,3-c]quinolin]-8′-yl)pyridin-3-yl)-4-methylbenzenesulfonamide], the results for the IC50 in test [1] and in test [2] were 1 to 100 nM and below 0.5 nM, respectively.
Taken in the same sequence, the figures for `CN1C(=O)C2(CC2)c2c1cnc1ccc(-c3cnc(OC4CC(N(C)C)C4)c(NS(=O)(=O)c4ccccc4)c3)cc21` (stereo not drawn) [Example 102, N-(2-(3-(Dimethylamino)cyclobutoxy)-5-(3′-methyl-2′-oxo-2′,3′-dihydrospiro[cyclopropane-1,1′-pyrrolo[2,3-c]quinolin]-8′-yl)pyridin-3-yl)benzenesulfonamide] were 1 to 100 nM and 1 to 100 nM.
For `CN(C)CCCOc1ncc(-c2ccc3ncc4c(c3c2)C2(CC2)C(=O)N4C)cc1NS(=O)(=O)Cc1ccccc1` [Example 103, N-(2-(3-(Dimethylamino)propoxy)-5-(3′-methyl-2′-oxo-2′,3′-dihydrospiro [cyclopropane-1,1′-pyrrolo[2,3-c]quinolin]-8′-yl)pyridin-3-yl)-1-phenylmethanesulfonamide] the same measures were 1 to 100 nM and 1 to 100 nM.
For `COc1cccc(S(=O)(=O)Nc2cc(-c3ccc4ncc5c(c4c3)C3(CC3)C(=O)N5C)cnc2OCCCN(C)C)c1` [Example 104] the same measures were 0.5 to 1 nM and 1 to 100 nM.
As for `CN(C)CCCOc1ncc(-c2ccc3ncc4c(c3c2)C2(CC2)C(=O)N4C)cc1NS(=O)(=O)c1cccc(C(F)(F)F)c1` [Example 106, N-(2-(3-(Dimethylamino)propoxy)-5-(3′-methyl-2′-oxo-2′,3′-dihydrospiro [cyclopropane-1,1′-pyrrolo[2,3-c]quinolin]-8′-yl)pyridin-3-yl)-3-(trifluoromethyl)benzenesulfonamide], the IC50 is 1 to 100 nM in test [1] and below 0.5 nM in test [2].
Taken in the same sequence, the figures for `CN(C)CCCOc1ncc(-c2ccc3ncc4c(c3c2)C2(CC2)C(=O)N4C)cc1NS(=O)(=O)c1ccccc1F` [Example 107, N-(2-(3-(Dimethylamino)propoxy)-5-(3′-methyl-2′-oxo-2′,3′-dihydrospiro[cyclopropane-1,1′-pyrrolo[2,3-c]quinolin]-8′-yl)pyridin-3-yl)-2-fluorobenzenesulfonamide] were 0.5 to 1 nM and below 0.5 nM.
Taken in the same sequence, the figures for `CN(C)CCCOc1ncc(-c2ccc3ncc4c(c3c2)C2(CC2)C(=O)N4C)cc1NS(=O)(=O)N(C)C` [Example 109] were 1 to 100 nM and below 0.5 nM.
As to `CN(C)CCCOc1ncc(-c2ccc3ncc4c(c3c2)C2(CC2)C(=O)N4C)cc1NS(=O)(=O)c1ccc(F)c(C#N)c1` [Example 111, 3-Cyano-N-(2-(3-(dimethylamino)propoxy)-5-(3′-methyl-2′-oxo-2′,3′-dihydrospiro [cyclopropane-1,1′-pyrrolo[2,3-c]quinolin]-8′-yl)pyridin-3-yl)-4-fluorobenzenesulfonamide], the IC50 is 1 to 100 nM in test [1] and below 0.5 nM in test [2].
For `CN(C)CCCOc1ncc(-c2ccc3ncc4c(c3c2)C2(CC2)C(=O)N4C)cc1NS(=O)(=O)c1ccn(C)n1` [Example 112, N-(2-(3-(Dimethylamino)propoxy)-5-(3′-methyl-2′-oxo-2′,3′-dihydrospiro[cyclopropane-1,1′-pyrrolo[2,3-c]quinolin]-8′-yl)pyridin-3-yl)-1-methyl-1H-pyrazole-3-sulfonamide] the same measures were 1 to 100 nM and below 0.5 nM.
For `CN1C(=O)C2(CC2)c2c1cnc1ccc(-c3cnc(N4CCC(N(C)C)CC4)c(NS(=O)(=O)C4CC4)c3)cc21` [Example 113, N-(2-(4-(Dimethylamino)piperidin-1-yl)-5-(3′-methyl-2′-oxo-2′,3′-dihydrospiro[cyclopropane-1,1′-pyrrolo[2,3-c]quinolin]-8′-yl)pyridin-3-yl)cyclopropanesulfonamide] the same measures were below 0.5 nM and below 0.5 nM.
Taken in the same sequence, the figures for `CN(C)CCCOc1ncc(-c2ccc3ncc4c(c3c2)C2(CN(c3ccccc3)C2)C(=O)N4C)cc1NS(=O)(=O)c1ccccc1` [Example 114, N-(2-(3-(Dimethylamino)propoxy)-5-(3′-methyl-2′-oxo-1-phenyl-2′,3′-dihydrospiro[azetidine-3,1′-pyrrolo[2,3-c]quinolin]-8′-yl)pyridin-3-yl)benzenesulfonamide] were 1 to 100 nM and 1 to 100 nM.
Take `CN(C)CC1CCN(c2ncc(-c3ccc4ncc5c(c4c3)C3(CC3)C(=O)N5C)cc2NS(=O)(=O)C2CC2)CC1` [Example 115]: the IC50 in test [1] is 0.5 to 1 nM; in test [2], 1 to 100 nM.
For `CN(C)CCCOc1ncc(-c2ccc3ncc4c(c3c2)C2(CC2)C(=O)N4C)cc1NS(=O)(=O)c1ccccc1OC(F)(F)F` [Example 116] the same measures were 0.5 to 1 nM and 0.5 to 1 nM.
